The subject of this assay is BDF1 mice, s.c. Lewis lung carcinoma, T/C %. Put plainly: NCI In Vivo Anticancer Drug Screen. Data for tumor model Lewis Lung Carcinoma (subcutaneous) in B6D2F1 (BDF1) mice. The gist of the method:
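Tumor-bearing mice were treated with test compound, and either survival or tumor size was recorded. Values are the treated-group measurement divided by that of the vehicle-treated control group.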

“And” between values parts separate entries of the source, which are not always exact repeats. Identical values can stand only once. Results filed as inconclusive are left out.

Take `COC1N(C2CC(O)C(CO)O2)C(=O)NC(=O)C1(F)Br` (configuration not stated): the T/C was 45 % of control and 51 % of control and 55 % of control (endpoint: mean tumor weight, dose: 8.8 mg/kg/injection, schedule: Q01DX011 (ip), vehicle: saline, higher = larger tumour); 36 % of control and 56 % of control and 57 % of control (endpoint: mean tumor weight, dose: 13.3 mg/kg/injection, schedule: Q01DX011 (ip), vehicle: saline, higher = larger tumour); 13 % of control and 22 % of control (endpoint: mean tumor weight, dose: 20.0 mg/kg/injection, schedule: Q01DX011 (ip), vehicle: saline, higher = larger tumour); 110 % of control and 117 % of control (endpoint: median survival time, dose: 1.56 mg/kg/injection, schedule: Q01DX009 (ip), vehicle: saline, higher = longer survival); 110 % of control (endpoint: median survival time, dose: 3.12 mg/kg/injection, schedule: Q01DX009 (ip), vehicle: saline, higher = longer survival); 113 % of control (endpoint: median survival time, dose: 3.13 mg/kg/injection, schedule: Q01DX009 (ip), vehicle: saline, higher = longer survival). Also, the T/C was 109 % of control and 277 % of control (endpoint: median survival time, dose: 6.25 mg/kg/injection, schedule: Q01DX009 (ip), vehicle: saline, higher = longer survival); 279 % of control (endpoint: median survival time, dose: 12.5 mg/kg/injection, schedule: Q01DX009 (ip), vehicle: saline, higher = longer survival).
Take `OC(COc1cccc2ccccc12)CN(CCCl)CCCl` (configuration not stated): the T/C reads like this: (endpoint: median survival time, dose: 1.25 mg/kg/injection, schedule: Q01DX009 (ip), vehicle: Klucel (hydroxypropylcellulose) (HPC), higher = longer survival) 94 % of control and 104 % of control; (endpoint: median survival time, dose: 2.5 mg/kg/injection, schedule: Q01DX009 (ip), vehicle: Klucel (hydroxypropylcellulose) (HPC), higher = longer survival) 100 % of control and 101 % of control; (endpoint: median survival time, dose: 5.0 mg/kg/injection, schedule: Q01DX009 (ip), vehicle: Klucel (hydroxypropylcellulose) (HPC), higher = longer survival) 103 % of control.
`[Cl][Hg][c]1ccc2ccccc2c1`: the T/C runs as follows: (endpoint: median survival time, dose: 3.0 mg/kg/injection, schedule: Q01DX009 (ip), vehicle: gum acacia, higher = longer survival) 89 % of control; (endpoint: median survival time, dose: 6.0 mg/kg/injection, schedule: Q01DX009 (ip), vehicle: gum acacia, higher = longer survival) 108 % of control.
Turning to `CNC1=C(N2CC2)C(=O)C(NC)=C(N2CC2)C1=O`, the T/C (endpoint: median survival time, dose: 0.02 mg/kg/injection, schedule: Q01DX009 (ip), vehicle: saline, higher = longer survival) is 120 % of control; the T/C (endpoint: median survival time, dose: 0.1 mg/kg/injection, schedule: Q01DX009 (ip), vehicle: saline, higher = longer survival) is 113 % of control; the T/C (endpoint: median survival time, dose: 0.2 mg/kg/injection, schedule: Q01DX009 (ip), vehicle: saline, higher = longer survival) was 105 % of control; the T/C (endpoint: median survival time, dose: 0.4 mg/kg/injection, schedule: Q01DX009 (ip), vehicle: saline, higher = longer survival) is 124 % of control.
In the case of `C/C=C1\CN(C)[C@H]2Cc3c([nH]c4ccccc34)[C@@H](c3cc4[nH]c5c(c4cc3OC)CCN3C[C@H]4C[C@H](CC)[C@H]3[C@@]5(C(=O)OC)C4)C[C@H]1C2C(=O)OC` (some centres not stated), the T/C was 66 % of control (endpoint: mean tumor weight, dose: 18.0 mg/kg/injection, schedule: Q01DX011 (ip), vehicle: water, higher = larger tumour); 81 % of control (endpoint: mean tumor weight, dose: 27.0 mg/kg/injection, schedule: Q01DX011 (ip), vehicle: water, higher = larger tumour); 62 % of control (endpoint: mean tumor weight, dose: 40.0 mg/kg/injection, schedule: Q01DX011 (ip), vehicle: water, higher = larger tumour).
As for `CN1c2c(nc(N)[nH]c2=O)NCC1CCNc1ccc(C(=O)NC(CCC(=O)O)C(=O)O)cc1` (configuration not stated), the T/C by setting is: (endpoint: median survival time, dose: 268.0 mg/kg/injection, schedule: Q01DX009 (ip), vehicle: saline, higher = longer survival) 120 % of control; (endpoint: median survival time, dose: 400.0 mg/kg/injection, schedule: Q01DX009 (ip), vehicle: saline, higher = longer survival) 116 % of control; (endpoint: median survival time, dose: 400.0 mg/kg/injection, schedule: Q04DX003 (ip), vehicle: saline, higher = longer survival) 103 % of control; (endpoint: median survival time, dose: 600.0 mg/kg/injection, schedule: Q04DX003 (ip), vehicle: saline, higher = longer survival) 116 % of control; (endpoint: median survival time, dose: 800.0 mg/kg/injection, schedule: Q01DX001 (ip), vehicle: saline, higher = longer survival) 98 % of control; (endpoint: median survival time, dose: 900.0 mg/kg/injection, schedule: Q04DX003 (ip), vehicle: saline, higher = longer survival) 106 % of control. Moreover, the T/C runs as follows: (endpoint: median survival time, dose: 1200.0 mg/kg/injection, schedule: Q01DX001 (ip), vehicle: saline, higher = longer survival) 103 % of control; (endpoint: median survival time, dose: 1800.0 mg/kg/injection, schedule: Q01DX001 (ip), vehicle: saline, higher = longer survival) 110 % of control.
Consider `COC1=CC(=O)N(C(=O)C2CSC(C(CO)NC(=O)c3csc(/C=N/O)n3)=N2)C1` (configuration not stated), for which the T/C was 92 % of control (endpoint: median survival time, dose: 100.0 mg/kg/injection, schedule: Q01DX009 (ip), vehicle: Klucel (hydroxypropylcellulose) (HPC), higher = longer survival) and 92 % of control (endpoint: median survival time, dose: 200.0 mg/kg/injection, schedule: Q01DX009 (ip), vehicle: Klucel (hydroxypropylcellulose) (HPC), higher = longer survival).
For the compound `CO[C@H]1Nc2c(ccc(C)c2O)C(=O)N2C=C(/C=C/C(N)=O)C[C@@H]12`, the T/C by setting is: (endpoint: median survival time, dose: 0.03 mg/kg/injection, schedule: Q04DX003 (ip), vehicle: saline with Tween-80, higher = longer survival) 92 % of control; (endpoint: median survival time, dose: 0.04 mg/kg/injection, schedule: Q04DX003 (ip), vehicle: saline with Tween-80, higher = longer survival) 103 % of control; (endpoint: median survival time, dose: 0.06 mg/kg/injection, schedule: Q04DX003 (ip), vehicle: saline with Tween-80, higher = longer survival) 89 % of control and 98 % of control; (endpoint: median survival time, dose: 0.13 mg/kg/injection, schedule: Q04DX003 (ip), vehicle: saline with Tween-80, higher = longer survival) 98 % of control; (endpoint: median survival time, dose: 0.25 mg/kg/injection, schedule: Q04DX003 (ip), vehicle: saline with Tween-80, higher = longer survival) 99 % of control; (endpoint: median survival time, dose: 50.0 micrograms/kg/injection, schedule: Q04DX003 (ip), vehicle: saline + alcohol, higher = longer survival) 107 % of control. In addition, the T/C (endpoint: median survival time, dose: 100.0 micrograms/kg/injection, schedule: Q04DX003 (ip), vehicle: saline + alcohol, higher = longer survival) is 106 % of control and the T/C (endpoint: median survival time, dose: 200.0 micrograms/kg/injection, schedule: Q04DX003 (ip), vehicle: saline + alcohol, higher = longer survival) is 97 % of control.
For `Cc1cc2c(c3oc(C4(C)OC4C4OC4C)cc(=O)c13)C(=O)c1c(O)c(C3CC(C)(N(C)C)C(O)C(C)O3)cc(C3CC(N(C)C)C(O)C(C)O3)c1C2=O` (configuration not stated), the T/C runs as follows: (endpoint: median survival time, dose: 4.0 micrograms/kg/injection, schedule: Q01DX009 (ip), vehicle: DMSO, higher = longer survival) 105 % of control; (endpoint: median survival time, dose: 8.0 micrograms/kg/injection, schedule: Q01DX009 (ip), vehicle: DMSO, higher = longer survival) 108 % of control; (endpoint: median survival time, dose: 16.0 micrograms/kg/injection, schedule: Q01DX009 (ip), vehicle: DMSO, higher = longer survival) 100 % of control.
In the case of `CN(C)c1ccc(/C=C\c2ccnc3ccccc23)cc1`, the T/C is, setting by setting: (endpoint: mean tumor weight, dose: 1.25 mg/kg/injection, schedule: Q01DX011 (ip), vehicle: other, higher = larger tumour) 103 % of control; (endpoint: mean tumor weight, dose: 2.5 mg/kg/injection, schedule: Q01DX011 (ip), vehicle: other, higher = larger tumour) 84 % of control; (endpoint: mean tumor weight, dose: 5.0 mg/kg/injection, schedule: Q01DX011 (ip), vehicle: other, higher = larger tumour) 75 % of control; (endpoint: mean tumor weight, dose: 10.0 mg/kg/injection, schedule: Q01DX011 (ip), vehicle: other, higher = larger tumour) 71 % of control and 83 % of control; (endpoint: mean tumor weight, dose: 20.0 mg/kg/injection, schedule: Q01DX011 (ip), vehicle: other, higher = larger tumour) 54 % of control and 68 % of control.
For `CC(C)NC(=O)c1ccc(N/N=[N+](/C)[O-])cc1`, the T/C reads like this: (endpoint: median survival time, dose: 6.25 mg/kg/injection, schedule: Q01DX005 (ip), vehicle: saline with Tween-80, higher = longer survival) 105 % of control; (endpoint: median survival time, dose: 12.5 mg/kg/injection, schedule: Q01DX005 (ip), vehicle: saline with Tween-80, higher = longer survival) 102 % of control; (endpoint: median survival time, dose: 25.0 mg/kg/injection, schedule: Q01DX005 (ip), vehicle: saline with Tween-80, higher = longer survival) 106 % of control; (endpoint: median survival time, dose: 50.0 mg/kg/injection, schedule: Q01DX005 (ip), vehicle: saline with Tween-80, higher = longer survival) 90 % of control and 103 % of control; (endpoint: median survival time, dose: 100.0 mg/kg/injection, schedule: Q01DX005 (ip), vehicle: saline with Tween-80, higher = longer survival) 111 % of control and 112 % of control; (endpoint: median survival time, dose: 200.0 mg/kg/injection, schedule: Q01DX005 (ip), vehicle: saline with Tween-80, higher = longer survival) 110 % of control.
For the compound `O=c1[nH]c(=O)n(C2CC(O)C(CO)O2)cc1C(F)(F)F` (configuration not stated), the T/C by setting is: (endpoint: median survival time, dose: 2.5 mg/kg/injection, schedule: Q01DX009 (ip), vehicle: saline, higher = longer survival) 119 % of control; (endpoint: median survival time, dose: 5.0 mg/kg/injection, schedule: Q01DX009 (ip), vehicle: saline, higher = longer survival) 103 % of control; (endpoint: median survival time, dose: 10.0 mg/kg/injection, schedule: Q01DX009 (ip), vehicle: saline, higher = longer survival) 118 % of control.
As to `O=NN(CCCl)C(=O)N[C@H]1CCC[C@@H](C(=O)O)C1`, the T/C runs as follows: (endpoint: median survival time, dose: 14.0 mg/kg/injection, schedule: Q01DX001 (ip), vehicle: Klucel (hydroxypropylcellulose) (HPC), higher = longer survival) 88 % of control; (endpoint: median survival time, dose: 32.0 mg/kg/injection, schedule: Q01DX001 (ip), vehicle: Klucel (hydroxypropylcellulose) (HPC), higher = longer survival) 93 % of control.

Source of the values: PubChem BioAssay AID270 (DTP/NCI, 2004).
